Tested on: tyrosine kinase activity in xenograft tumor lysates
Test: PAMCHIP96 (140-peptide array) profiling of xenograft tumor lysates in absence or presence of MTKI
Assay type: biochemical
Conditions: 5 μM
Procedure: 100 mg of frozen tumor or tissue blocks, or sections, are lysed in 1 ml of M-PER buffer (PIERCE) containing phosphatase and protease inhibitors (HALT, PIERCE). The suspension is mixed using a ULTRA-TURRAX blender (IKA werke), and centrifuged twice for 10 minutes at 12 000×g. Supernatant lysates are filtered through a 0.2 micrometer filter (Anotop 0.2 μm anopore filter; Whatmann). Lysates are flash frozen in liquid nitrogen and stored at −80C.
Just prior to the PAMCHIP experiment, total protein content is quantitated in the lysates and lysates are diluted to 1 mg/ml in a total volume of 200 μl, with M-PER phosphatase and protease inhibitors (HALT, PIERCE). 10 μg of total lysate (corresponding to 10 μl) will be used per well on the PAMCHIP96.
To all 200 μl lysates 10 units of benzonase (Novagen) is added and lysates are further incubated for 30 min on ice and next centrifuged for 10 minutes at 12 000×g. The supernatant is then 1:1 diluted with compound or DMSO diluted to the appropriate concentration in water, and lysates are further incubated exactly 60 min on ice. Meanwhile, a PAMCHIP96 tyrosine peptide chip (PAMGENE) is blocked with 2% BSA (filtered through a 0.2 μm anopore filter; Whatmann) using the standard setting of a PAMSTATION96 (PAMGENE).
The composition of the kinase buffer is as follows: 1×ABL buffer (NEB), 0.5 mg/ml BSA (from 10 mg/ml NEB stock), 100 μM ATP (dissolved and diluted in 1×ABL buffer), 5 μg/ml PY20-FITC (ExAlpha Biologicals, azide-free preparation). A twofold concentrated kinase buffer is prepared chilled on ice, DMSO or compound is added as appropriate, and the solution is added 1:1 to the (compound treated) ice cold lysates, and immediately applied to a tyrosine peptide PAMCHIP96. The assay is run on a PAMSTATION96 according to standard procedures: after loading of the plate, solution is pumped once onto the wells, a first exposure is read (150 mSec) and then a kinetic reading program (reading every 5 min for 150 mSec) is run for 60 min. Lysates are run in 6 technical replicates for each condition; replicates are always applied horizontally next to each other to avoid vertical strip effects of the chip.
The data (spot images) are further quantified and linked to the peptide identities using EVOLVE PAMGRID software (PAMGENE). The quantified data are then fit to a curve using CurveFitHT software (PAMGENE) using the Vinip2 curve fitting algorithm, applied on the first 30 min of the assay; the initial velocity is derived at the first kinetic time point read. All subsequent data analyses were done on initial velocities (Vini) using the software packages Omniviz and R (Ihaka, R. and Gentlemen, R. (1996) R: a language for data analysis and graphics. J. Comput. Graph. Stat., 5, 299-314).
After replacing the Vini's lower than 0.1 by 0.1, all Vini's were log 2-transformed to approach normality. […] This test was done for each peptide separately using a mixed model (Littell, R. C., Milliken, G. A., Stroup, W. W., Wolfinger, R. D. 1996. SAS system for mixed models. Cary, N. C.: SAS Institute Inc.) allowing the incorporation of both technical variation (i.e., the variation across replicates) and biological variation (i.e., the variation among the various responding and non-responding cell lines or tumors). Variation between cell lines or tumors in Vini and in treatment effect on Vini was modeled respectively by random intercepts and random compound effects per cell line or tumor, nested in response status. The difference in compound-induced reduction in Vini between responding and non-responding cell lines or tumors was tested through the interaction between compound treatment and response status, both modeled as fixed effects.

Question: Which results are given for `COc1cc2ncnc3c2cc1OCCCCCN(C)Cc1ccc(Br)cc1N3` [MTKI, 4,6-ethanediylidenepyrimido[4,5-b][6,1,12]benzoxadiazacyclopentadecine, 17-bromo-8,9,10,11,12,13,14,19-octahydro-20-methoxy-13-methyl-]?
Answer: ratio of initial velocity of peptide phosphorylation (H322 xenograft tumor lysate, CDK7_157_169_S164): 0.77; ratio of initial velocity of peptide phosphorylation (H322 xenograft tumor lysate, EPHB1_921_933_Y928): 0.75; ratio of initial velocity of peptide phosphorylation (H322 xenograft tumor lysate, FAK1_569_581_Y576/Y577): 0.82; ratio of initial velocity of peptide phosphorylation (H322 xenograft tumor lysate, GSK3B_209_221_Y216): 0.77; ratio of initial velocity of peptide phosphorylation (H322 xenograft tumor lysate, K2C6E_53_65_S59): 0.80; ratio of initial velocity of peptide phosphorylation (H322 xenograft tumor lysate, MBP_259_271_Y261/Y268/S266): 0.65; ratio of initial velocity of peptide phosphorylation (H322 xenograft tumor lysate, MK10_216_228_T221/Y223): 0.68; ratio of initial velocity of peptide phosphorylation (H322 xenograft tumor lysate, NCF1_313_325_S315/S320): 0.78; ratio of initial velocity of peptide phosphorylation (H322 xenograft tumor lysate, NTRK2_699_711_Y702/Y706/Y707): 0.76; ratio of initial velocity of peptide phosphorylation (H322 xenograft tumor lysate, P2AB_297_309_T304/Y307): 0.77; ratio of initial velocity of peptide phosphorylation (H322 xenograft tumor lysate, PGFRB_572_584_Y579/Y581): 0.67; ratio of initial velocity of peptide phosphorylation (H322 xenograft tumor lysate, RAF1_331_343_S337/S338/Y339/Y340): 0.79; ratio of initial velocity of peptide phosphorylation (H322 xenograft tumor lysate, RB_804_816_S807/S811): 0.75; ratio of initial velocity of peptide phosphorylation (H322 xenograft tumor lysate, SYN1_2_14_S9): 0.78; ratio of initial velocity of peptide phosphorylation (H322 xenograft tumor lysate, TYRO3_679_691_Y686): 0.80; ratio of initial velocity of peptide phosphorylation (H322 xenograft tumor lysate, VEGFR2_944_956_Y951): 0.75; ratio of initial velocity of peptide phosphorylation (H322 xenograft tumor lysate, VINC_815_827_Y821): 0.76; ratio of initial velocity of peptide phosphorylation (H3255 xenograft tumor lysate, CDK7_157_169_S164): 0.45; ratio of initial velocity of peptide phosphorylation (H3255 xenograft tumor lysate, EPHB1_921_933_Y928): 0.44; ratio of initial velocity of peptide phosphorylation (H3255 xenograft tumor lysate, FAK1_569_581_Y576/Y577): 0.48; ratio of initial velocity of peptide phosphorylation (H3255 xenograft tumor lysate, GSK3B_209_221_Y216): 0.57; ratio of initial velocity of peptide phosphorylation (H3255 xenograft tumor lysate, K2C6E_53_65_S59): 0.56; ratio of initial velocity of peptide phosphorylation (H3255 xenograft tumor lysate, MBP_259_271_Y261/Y268/S266): 0.47; ratio of initial velocity of peptide phosphorylation (H3255 xenograft tumor lysate, MK10_216_228_T221/Y223): 0.31; ratio of initial velocity of peptide phosphorylation (H3255 xenograft tumor lysate, NCF1_313_325_S315/S320): 0.73; ratio of initial velocity of peptide phosphorylation (H3255 xenograft tumor lysate, NTRK2_699_711_Y702/Y706/Y707): 0.48; ratio of initial velocity of peptide phosphorylation (H3255 xenograft tumor lysate, P2AB_297_309_T304/Y307): 0.66; ratio of initial velocity of peptide phosphorylation (H3255 xenograft tumor lysate, PGFRB_572_584_Y579/Y581): 0.66; ratio of initial velocity of peptide phosphorylation (H3255 xenograft tumor lysate, RAF1_331_343_S337/S338/Y339/Y340): 0.53; ratio of initial velocity of peptide phosphorylation (H3255 xenograft tumor lysate, RB_804_816_S807/S811): 0.52; ratio of initial velocity of peptide phosphorylation (H3255 xenograft tumor lysate, SYN1_2_14_S9): 0.50; ratio of initial velocity of peptide phosphorylation (H3255 xenograft tumor lysate, TYRO3_679_691_Y686): 0.51; ratio of initial velocity of peptide phosphorylation (H3255 xenograft tumor lysate, VEGFR2_944_956_Y951): 0.52; ratio of initial velocity of peptide phosphorylation (H3255 xenograft tumor lysate, VINC_815_827_Y821): 0.40; ratio of initial velocity of peptide phosphorylation (SUM149 xenograft tumor lysate, EPHB1_921_933_Y928): 0.85; ratio of initial velocity of peptide phosphorylation (SUM149 xenograft tumor lysate, FAK1_569_581_Y576/Y577): 0.94; ratio of initial velocity of peptide phosphorylation (SUM149 xenograft tumor lysate, GSK3B_209_221_Y216): 0.91; ratio of initial velocity of peptide phosphorylation (SUM149 xenograft tumor lysate, K2C6E_53_65_S59): 0.86; ratio of initial velocity of peptide phosphorylation (SUM149 xenograft tumor lysate, MBP_259_271_Y261/Y268/S266): 1.04; ratio of initial velocity of peptide phosphorylation (SUM149 xenograft tumor lysate, MK10_216_228_T221/Y223): 0.75; ratio of initial velocity of peptide phosphorylation (SUM149 xenograft tumor lysate, NCF1_313_325_S315/S320): 0.94; ratio of initial velocity of peptide phosphorylation (SUM149 xenograft tumor lysate, NTRK2_699_711_Y702/Y706/Y707): 0.85; ratio of initial velocity of peptide phosphorylation (SUM149 xenograft tumor lysate, P2AB_297_309_T304/Y307): 0.87; ratio of initial velocity of peptide phosphorylation (SUM149 xenograft tumor lysate, PGFRB_572_584_Y579/Y581): 0.69; ratio of initial velocity of peptide phosphorylation (SUM149 xenograft tumor lysate, RAF1_331_343_S337/S338/Y339/Y340): 0.99; ratio of initial velocity of peptide phosphorylation (SUM149 xenograft tumor lysate, RB_804_816_S807/S811): 0.83; ratio of initial velocity of peptide phosphorylation (SUM149 xenograft tumor lysate, SYN1_2_14_S9): 1.01; ratio of initial velocity of peptide phosphorylation (SUM149 xenograft tumor lysate, TYRO3_679_691_Y686): 1.03; ratio of initial velocity of peptide phosphorylation (SUM149 xenograft tumor lysate, VEGFR2_944_956_Y951): 0.86; ratio of initial velocity of peptide phosphorylation (SUM149 xenograft tumor lysate, VINC_815_827_Y821): 0.75

Source: patent US20100234238A1, “METHOD FOR PROFILING KINASE INHIBITORS” (Janssen Pharmaceutica N V, priority 2006, published 2010)
